Here are results for three molecules from paper PMC6127852 (Journal of Enzyme Inhibition and Medicinal Chemistry, 2018).

SMILES strings stand for the structures. Like-named read-outs stand apart in the source and are kept apart here.

One data set deals with calf thymus ctDNA. The data set is described as follows: UV–Vis titration with ctDNA (Scatchard). Type of data set: binding. The following applies: UV–Vis titration, PBS, pH 7; footnote e: calculated from experimental data. In a few lines:
(§1)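 Polynucleotides titrated into compound at 1.48 × 10^−5 mol dm^−3 in PBS (I = 0.05 mol dm^−3, pH 7.0), with UV–Vis spectra in 1 cm quartz cells; ctDNA sonicated and filtered, concentration as nucleobases. Ks and n from Scatchard analysis, in some cases only from data at r ≥ 0.1.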

Data set [1] concerns polyA-polyU. The data set is described as follows: UV–Vis titration with polyA-polyU (Scatchard). Format: binding. Conditions: for Hypochromic effect H/%, polyA-polyU (from experimental data): footnote e: calculated from experimental data. In a few lines: as §1
The test system of another data set is polyC-polyG. As to the kind of experiment: UV–Vis titration with polyC-polyG (Scatchard). Conditions: PBS, pH 7. Format: binding. In a few lines:
as §1

A further data set deals with E. faecium VRE. The data set is described as follows: Broth microdilution MIC, VRE clinical strain. Conditions: Enterococcus faecium. Type of data set: cell-based. Put shortly: (§2)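 MICs were set by CLSI broth microdilution in cation (Ca2+, Mg2+)-adjusted Mueller–Hinton broth, in triplicate. Panel: S. aureus ATCC 25923, MRSA, MSSA, E. faecalis, VRE E. faecium, E. coli ATCC 25925, P. aeruginosa ATCC 27853, A. baumannii ATCC 19606 and ESBL K. pneumoniae ATCC 27736.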
For orientation: Dilution methods test growth across graded concentrations, often in twofold steps.

In the next data set the test system is S. aureus ATCC 25923. The data set is described as follows: Broth microdilution MIC, S. aureus ATCC 25923. Format: cell-based. The following applies: Staphylococcus aureus, ATCC25923; Table S2. In a few lines:
(§3)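 Growth inhibition is assessed in Mueller–Hinton broth supplemented with calcium and magnesium cations, following the CLSI standard microdilution format. The MIC is reported from three replicate tests.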

Another data set relates to E. faecalis ATCC 29212. The data set is described as follows: Broth microdilution MIC, E. faecalis ATCC 29212. Type of data set: cell-based. Conditions: Enterococcus faecalis, ATCC29212; Table S2. In a few lines: as §3
The subject of a further data set is E. coli ATCC 25925. As to the kind of experiment: Broth microdilution MIC, E. coli ATCC 25925. Format: cell-based. The following applies: Escherichia coli, ATCC25925; Table S2. In a few lines: as §3
Another data set deals with K. pneumonia ATCC 700803. The data set is described as follows: Broth microdilution MIC, K. pneumoniae ATCC 700803. Format: cell-based. Conditions: Klebsiella pneumoniae, ATCC700803; Table S2. Put shortly: as §3
A further data set concerns P. aeruginosa ATCC 27853. As to the kind of experiment: Broth microdilution MIC, P. aeruginosa ATCC 27853. Conditions: Pseudomonas aeruginosa, ATCC27853; Table S2. Format: cell-based. In a few lines:
as §3

The subject of another data set is A. baumannii ATCC 19606. The data set is described as follows: Broth microdilution MIC, A. baumannii ATCC 19606. Type of data set: cell-based. The following applies: Acinetobacter baumannii, ATCC19606; Table S2. In a few lines: as §3
The test system of data set [2] is Gram-positive and Gram-negative bacteria. The data set is described as follows: Anti-microbial activity overall (all tested bacteria). Type of data set: cell-based. The following applies: summary over tested strains; read-out: MIC, anti-microbial activities overall. How it is done:
The compounds were evaluated for their in vitro anti-bacterial activity against Gram-positive bacteria: S. aureus (ATCC 25923), MRSA, methicillin-sensitive S. aureus (MSSA), E. faecalis, vancomycin-resistant E. faecium (VREF), and Gram-negative bacteria: E. coli (ATCC 25925), P. aeruginosa (ATCC 27853), A. baumannii (ATCC 19606) and ESBL-producing K. pneumoniae (ATCC 27736). Standard broth microdilution method as recommended in guidelines of Clinical and Laboratory Standards Institute[61] ^, [65] ^, [66] was applied and the minimum inhibitory concentration (MIC) of compounds was tested. In short, testing was performed in U-bottomed 96-well sterile plastic microdilution trays (Falcon 3077, Becton Dickinson Labware, Franklin Lakes, NJ) in cation (Ca^2+ and Mg^2+) adjusted Mueller–Hinton broth medium (Becton Dickinson and Co., Cockeysville, MD). All testings were performed in triplicate.

In data set [3] the test system is bloodstream form T. brucei (strain 221). The data set is described as follows: Anti-trypanosomal screening, resazurin. Format: cell-based. The following applies: Trypanosoma brucei, mean of triplicate ± SEM. Put shortly:
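Parasites grown in modified Iscove's medium with compound in triplicate; resazurin added at 48 h and plates read after a further 16 h.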
In general terms: Alamar Blue is a resazurin reagent that responds to reducing activity.

Data set [4] has as its system L6 cells (a rat myoblast line). As to the kind of experiment: Cytotoxicity against mammalian cells, resazurin. Type of data set: cell-based. The following applies: L6, 144 h, 6 d incubation. The protocol:
Cytotoxicity against mammalian cells was also assessed using microtitre plates. Briefly, L6 cells (a rat myoblast line) were seeded at 1 × 10^4 ml^−1 in 200 µl of growth medium containing different compound concentrations. The plates were then incubated for 6 d at 37 °C and 20 µl resazurin added to each well. After a further 8 h incubation, the fluorescence was determined using a Spectramax plate reader, as outlined above.

In data set [5] the test system is polyA-polyU. The data set is described as follows: Thermal melting (ΔTm) of polyA-polyU. Format: binding. In a few lines:
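UV melting monitored at 260 nm in 1 cm cuvettes, ligand absorbance subtracted and normalised; ΔTm = Tm(complex) − Tm(free nucleic acid), mean of at least two runs, error ±0.5 °C. Compound tested at r = 0.1, 0.3, 0.5 and 0.7 eq ([compound]/[polynucleotide]) with ctDNA and polyA-polyU.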

Another data set relates to S. aureus MRSA. The data set is described as follows: Broth microdilution MIC, MRSA clinical strain. Type of data set: cell-based. Conditions: Staphylococcus aureus, antibiotic-resistant clinical strain. Put shortly:
as §2

In another data set the test system is S. aureus MSSA. As to the kind of experiment: Broth microdilution MIC, MSSA clinical strain. Type of data set: cell-based. The following applies: Staphylococcus aureus. In a few lines:
as §2

Data set [6] deals with bloodstream form T. brucei (strain 221). The following applies: read-out: T. brucei IC50 (reference drug), ref [83]; cited from earlier work.

Take `COc1ccc(-n2cc(COc3ccc(-c4nc5cc(C(=N)N)ccc5[nH]4)cc3)nn2)cc1.Cl.Cl` [Compound 7b, 2–(4-((1–(4-Methoxyphenyl)-1H-1,2,3-triazol-4-yl)methoxy)phenyl)-1H-benz[d]imidazole-5-carboximidamide dihydrochloride]: the melting point was in the range of 195 to 197 °C. Moreover, the “Hypochromic effect H/%, ctDNA (from experimental data)” value in the data set with calf thymus ctDNA is on record as 22.1 ^e %. Further, the “Hypochromic effect H/%, polyA-polyU (from experimental data)” value in the data set with polyA-polyU [1] is 27.9 ^e %. Also, the “Hypochromic effect H/%, polyC-polyG” value in the data set on polyC-polyG (UV–Vis titration, calculated by Scatchard equation) is recorded as 13.7%. Further, the “log Ks, polyC-polyG” value on polyC-polyG (binding constant, Scatchard) was found to be 6.27. Also, the minimum inhibitory concentration (MIC) with E. faecium VRE turned out to be 256 µg/mL. The molecule further came in with an MIC against S. aureus ATCC 25923 of more than 256 µg/mL. Moreover, in the data set on E. faecalis ATCC 29212, the lowest concentration to inhibit growth (MIC) was 128 µg/mL. The same molecule had an MIC against E. coli ATCC 25925 of more than 256 µg/mL. This molecule showed an MIC against K. pneumonia ATCC 700803 of more than 256 µg/mL. The molecule further displayed an MIC against P. aeruginosa ATCC 27853 of more than 256 µg/mL. In the data set on A. baumannii ATCC 19606, the minimal inhibitory concentration (MIC) was more than 256 µg/mL. Besides, the minimum inhibitory concentration (MIC) in [2] is not below 128 µg/mL. In data set [3], this molecule came in with a concentration for half-maximal inhibition (IC50) of 1.5 ± 0.3 µM and an IC90 of 8.1 ± 0.6 µM. This molecule registered an IC50 in data set [4] of 302 ± 15 µM.

`COc1ccc(-n2cc(COc3ccc(-c4nc5cc(C6=NCCN6)ccc5[nH]4)cc3)nn2)cc1.Cl.Cl` [Compound 9b, 5–(4,5-Dihydro-1H-imidazol-2-yl)-2–(4-((1–(4-methoxyphenyl)-1H-1,2,3-triazol-4-yl)methoxy)phenyl)-1H-benz[d]imidazole dihydrochloride] came in with a melting point of 197 to 199 °C. Also, the “Hypochromic effect H/%, ctDNA (from experimental data)” value with calf thymus ctDNA was 18.9 ^e %. In addition, the “log Ks, polyA-polyU” value at polyA-polyU [1] (binding constant, Scatchard, PBS, pH 7) was 5.46. Also, the “Hypochromic effect H/%, polyA-polyU (from experimental data)” value in the data set with polyA-polyU [1] is 31.6 ^e %. Besides, the “ΔTm, polyA-polyU, r = 0.1” value in the data set with polyA-polyU [5] (r = 0.1, PBS, pH 7) amounted to 2.49 °C. Further, in the data set on polyA-polyU [5] (r = 0.3, first melting midpoint), the “ΔTm, polyA-polyU, r = 0.3” value was 2.67 °C. The “ΔTm, polyA-polyU, r = 0.3, second melting midpoint” value in the data set on polyA-polyU [5] (r = 0.3, footnote c: biphasic melting curve) is 36.08^c °C. The “ΔTm, polyA-polyU, r = 0.5” value in the data set with polyA-polyU [5] (r = 0.5, first melting midpoint) came out at 2.92 °C. Further, the “ΔTm, polyA-polyU, r = 0.5, second melting midpoint” value in the data set with polyA-polyU [5] (r = 0.5, footnote c: biphasic melting curve) is 40.93^c °C. Further, in the data set on S. aureus MRSA, the lowest concentration to inhibit growth (MIC) was 256 µg/mL. The molecule further returned a minimum inhibitory concentration (MIC) in the data set with S. aureus MSSA of 256 µg/mL. Moreover, the minimal inhibitory concentration (MIC) against E. faecium VRE worked out at 256 µg/mL. For the same molecule, the lowest concentration to inhibit growth with S. aureus ATCC 25923 (MIC) was 128 µg/mL. In the data set on E. faecalis ATCC 29212, this molecule registered an MIC of 256 µg/mL. This molecule gave a minimal inhibitory concentration (MIC) with E. coli ATCC 25925 of 256 µg/mL. Besides, the minimal inhibitory concentration (MIC) in the data set with K. pneumonia ATCC 700803 was more than 256 µg/mL. This molecule came in with a minimal inhibitory concentration (MIC) with P. aeruginosa ATCC 27853 of more than 256 µg/mL. For the same molecule, the MIC against A. baumannii ATCC 19606 is more than 256 µg/mL. Also, the MIC in data set [2] was not below 128 µg/mL. Moreover, in [3], it took 1.6 ± 0.4 µM to reach half-maximal inhibition (IC50) and it took 7.3 ± 0.3 µM to reach the 90% level (IC90). In addition, in [4], the half-maximal inhibitory concentration (IC50) was 263 ± 15 µM.

As for `CC1CS(=O)(=O)CCN1/N=C/c1ccc([N+](=O)[O-])o1` (stereo not drawn) [Nifurtimox, nifurtimox], the IC50 in [6] is 4.4 ± 0.7 µM.

The MIC is the lowest concentration found to suppress growth. For orientation: IC50 means the midpoint of a concentration-inhibition curve. As a reminder, the IC90 is the point of the concentration-response curve where the effect stands at 90%. A word on the melting point: it is the temperature, or range, at which the solid turns liquid.
